Here are results for 8 molecules from patent US4028396A, “16,16-Spirocycloalkyl prostaglandin derivatives” (American Cyanamid Company, priority 1975, dated 1977).

Series [1] deals with bronchospasms elicited by histamine. The series is described as follows: bronchodilator activity, Konzett procedure, histamine bronchospasm. The series is classed as in vivo, guinea pigs. The note with it: Cavia porcellus; three logarithmic cumulative intravenous doses; spasmogen histamine. Here is the method:
(§1) The compounds of this invention are useful as bronchodilators for the treatment of asthma and chronic bronchitis. Bronchodilator activity is determined in guinea pigs against bronchospasms elicited by intravenous injections of 5-hydroxytryptamine, histamine or acetylcholine by the Konzett procedure. [See J. Lulling, P. Lievens, F. El Sayed and J. Prignot, Arzneimittel-Forschung, 18, 955 (1968).]
(§2) In Table A which follows bronchodilator activity for representative compounds of this invention against one or more of three spasmogenic agents is expressed as an ED50 determined from the results obtained with three logarithmic cumulative intravenous doses.

Series [2] has as its system bronchospasms elicited by 5-hydroxytryptamine. The series is described as follows: bronchodilator activity, Konzett procedure, 5-hydroxytryptamine bronchospasm. The series is classed as in vivo, guinea pigs. The conditions noted are these: Cavia porcellus; three logarithmic cumulative intravenous doses; spasmogen 5-hydroxytryptamine. Here is the method:
as §1, §2

The test system of series [3] is basal gastric acid secretion. The experiment in a line: inhibition of gastric acid secretion in the acute gastric fistula rat. It is filed as in vivo, Female Sprague-Dawley rats. The note with it: 10 mg./kg., intraduodenal. The method, then: The compounds of this invention are also useful as inhibitors of gastric acid secretion and peptic ulcer formation and may be used for the treatment of gastric hyperacidity, gastric erosion, and peptic ulcer. Inhibition of basal gastric acid secretion can be determined by the following procedure.
Female Sprague-Dawley rats weighing 140-160 grams are fasted in individual cages for 18-24 hours. The rats are then lightly anesthetized with ether and their front teeth extracted to avoid destruction of the plastic cannula. A midline incision is then made and the stomach and duodenum exposed. A flanged polyvinyl tube is inserted into the fundic portion of the stomach and secured with a purse string suture line using 4-0 Mersilene. The rat is then dosed by injection of the compound into the duodenum (1.0 ml. per 100 gram body weight). After dosing, the abdominal wall and skin are closed using metal wound clips. The rat is replaced in a cage containing a longitudinal slit to allow the polyvinyl tube to hang freely. An 8 ml. plastic collecting tube is attached to the flanged cannula and hangs freely below the cage. The first 30 minute sample is discarded designating this time as zero. The collecting tube is attached again and samples removed at the end of 60 and 120 minutes. The hourly samples are then transferred to a 15 ml. centrifuge and centrifuged for 5-10 minutes. Total and sediment volume are then recorded with supernatant volume being used as volume of secretion. A 1 ml. or less aliquot is then removed and placed in a 50 ml. beaker containing 10 ml. of distilled water. This sample is then titrated using 0.01N NaOH to pH 7.0 using a Beckman zeromatic pH meter. Volume, tritratable acidity (meq/L) and total acid output (ueg/hour) are recorded. Percent inhibition is determined by comparison with the appropriate control. Groups of three rats were used for preliminary testing, and groups of six rates were used for dose-response evaluations. All compounds are administered in a vehicle consisting of 0.5% methocel, 0.4% tween 80, and saline at a constant volume of 1 ml./100 gram rat. Samples are dispersed by sonification. Percent inhibition is calculated on basis of concurrent vehicle control.
In Table B which follows is given the effect on total acid output after 60 minutes (response A) and 120 minutes (response B) for various doses of representative compounds of this invention.

For series [4], the system named is basal gastric acid secretion. The description is as above. It is filed as in vivo, Female Sprague-Dawley rats. The conditions noted are these: oral.
Series [5] relates to bronchospasms elicited by acetylcholine. The experiment in a line: bronchodilator activity, Konzett procedure, acetylcholine bronchospasm. The series is classed as in vivo, guinea pigs. The note with it: Cavia porcellus; three logarithmic cumulative intravenous doses; spasmogen acetylcholine. The method, then: as §1, §2
For series [6], the system named is gastric acid output stimulated by gastrin tetrapeptide. The experiment in a line: gastric fistula dog, gastric acid output stimulated by gastrin tetrapeptide. It is filed as in vivo. The conditions noted are these: oral, 0.16 mg./kg., % of the control output. The method, then:
(§3) With the former agent a dose of 0.16 mg./kg. is sufficient to inhibit more than 50% of the control output.

The subject of series [7] is gastric acid output stimulated by histamine. The series is described as follows: gastric fistula dog, gastric acid output stimulated by histamine. The series is classed as in vivo. The note with it: oral. Here is the method:
as §3

Series [8] relates to mobilization of free fatty acids. The conditions noted are these: cited from earlier work.
In series [9] the test system is systemic arterial blood pressure. The conditions noted are these: in vivo; cited from earlier work.
Another series deals with smooth muscle. The conditions noted are these: cited from earlier work.
The conditions of series [10]: cited from earlier work.

With `CCCCC1([C@@H](O)/C=C/[C@H]2CCC(=O)[C@@H]2CCCCCCC(=O)O)CCC1` (relative stereo) [9-oxo-15-epi-hydroxy-16,16-trimethylene-13-trans-prostenoic acid], the ED50 in series [1] came out at 0.014 mg/kg; in series [2], 0.135 mg/kg; in series [5], 0.003 mg/kg. Moreover, the “%-Inhibition of Total Acid Output” value in [3] (after 60 min.) is given as 98%; in series [3] (after 120 min.) it was 92%; in [4] (10 mg./kg., after 60 min.) it was 85%; in series [4] (10 mg./kg., after 120 min.), 61%.
For `CCCCC1([C@H](O)/C=C/[C@H]2CCC(=O)[C@@H]2CCCCCCC(=O)O)CCC1` (relative stereo) [9-oxo-15-hydroxy-16,16-trimethylene-13-trans-prostenoic acid], the ED50 in [1] is 0.0024 mg/kg; in series [2] it was 0.02 mg/kg; in series [5], 0.048 mg/kg. Besides, the “%-Inhibition of Total Acid Output” value in [3] (after 60 min.) worked out at 98%; in series [3] (after 120 min.) it was 75%; in series [4] (2.5 mg./kg., after 60 min.), 86%; in [4] (2.5 mg./kg., after 120 min.), 83%.
For the molecule `CCCCC1([C@H](O)/C=C/[C@H]2[C@H](O)CC(=O)[C@@H]2C/C=C\CCCC(=O)O)CCC1` (relative stereo) [11α,15-dihydroxy-9-oxo-16,16-trimethylene-5-cis,13-trans-prostadienoic acid], the ED50 is 0.0015 mg/kg in [1], 0.0025 mg/kg in [2] and 0.0011 mg/kg in series [5]. Besides, in series [6], the “inhibition of gastric acid output stimulated by gastrin tetrapeptide” value is reported as “more than 50%”. Also, in series [7], the “inhibition of the stimulation of gastric acid output by histamine” value is listed as “will inhibit the stimulation of gastric acid output”. Also, the “%-Inhibition of Total Acid Output” value in [3] (after 60 min.) is 100%; in series [3] (after 120 min.) it was 100%; in series [4] (0.63 mg./kg., after 60 min.), 30%; in [4] (0.63 mg./kg., after 120 min.), 35%; in series [4] (1.25 mg./kg., after 60 min.) it was 40%; in [4] (1.25 mg./kg., after 120 min.), 36%. Moreover, the “%-Inhibition of Total Acid Output” value in series [4] (2.5 mg./kg., after 60 min.) turned out to be 87%; in [4] (2.5 mg./kg., after 120 min.), 74%; in series [4] (10 mg./kg., after 60 min.), 100%; in series [4] (10 mg./kg., after 120 min.) it was 100%.
For `CCCCC1([C@@H](O)/C=C/[C@H]2[C@H](O)CC(=O)[C@@H]2C/C=C\CCCC(=O)O)CCC1` (relative stereo) [11α,15-epi-dihydroxy-9-oxo-16,16-trimethylene-5-cis,13-trans-prostadienoic acid], the ED50 in series [1] came to 0.048 mg/kg; in [2], 0.305 mg/kg; in series [5], 0.032 mg/kg. Besides, the “%-Inhibition of Total Acid Output” value was 98% in series [3] (after 60 min.); 86% in series [3] (after 120 min.); 32% in series [4] (10 mg./kg., after 60 min.); 39% in [4] (10 mg./kg., after 120 min.).
For the molecule `CCCCC1([C@@H](O)/C=C/[C@H]2CCC(=O)[C@@H]2CCCCCCC(=O)OCC)CCC1` (relative stereo) [ethyl 15-epi-hydroxy-9-oxo-16,16-trimethylene-13-trans-prostenoate], the “%-Inhibition of Total Acid Output” value is 98% in [3] (after 60 min.); 87% in [3] (after 120 min.); 77% in [4] (10 mg./kg., after 60 min.); 67% in [4] (10 mg./kg., after 120 min.).
As to `CCCCC1([C@H](O)/C=C/[C@H]2CCC(=O)[C@@H]2CCCCCCC(=O)OCC)CCC1` (relative stereo) [ethyl 15-hydroxy-9-oxo-16,16-trimethylene-13-trans-prostenoate], the “%-Inhibition of Total Acid Output” value in series [3] (after 60 min.) is 100%; in series [3] (after 120 min.), 100%; in series [4] (10 mg./kg., after 60 min.), 48%; in [4] (10 mg./kg., after 120 min.), 38%.
As to `CCCCC[C@H](O)/C=C/[C@H]1[C@H](O)CC(=O)[C@@H]1CCCCCCC(=O)O` [PGE1], the “potency as antilipolytic agent” value in series [8] is “potent”. Further, the “potency in causing vasodepression” value in series [9] is “extremely potent”. Also, the “potency in causing smooth muscle stimulation” value in the series with smooth muscle is given as “extremely potent”.
Regarding `CCCCC[C@H](O)/C=C/[C@H]1[C@H](O)CC(=O)[C@@H]1C/C=C\CCCC(=O)O` [prostaglandin E2], the “potency as antilipolytic agent” value in series [8] was “potent”. The “potency in causing vasodepression” value in [9] is given as “extremely potent”. The “potency in causing smooth muscle stimulation” value in the series on smooth muscle is recorded as “extremely potent”. Also, the “time within which the solution must be used” value in series [10] (room temperature) was “one day”. In series [10] (saline solution stored at 40° C. (so in the source), preferably), the “time within which saline solution should preferably be used” value was 2 to 3 days. Besides, in [10] (saline solution stored at 40° C. (so in the source)), the “time within which saline solution should be used” value is “a week”. The “decrease in biological activity on storage” value in series [10] (ten days storage at 4° C., concentration 100 mg./ml.) was “significant decrease”.

In general, ED50 refers to the midpoint of the dose-response relation. A lower ED50 goes with greater potency.
